Experimental findings from US9428510B2, “Derivatives of azaindazole or diazaindazole type for treating a cancer overexpressing Trk” (PIERRE FABRE MEDICAMENT, priority 2012, dated 2016) are described below.

One series deals with KM-12 colon cancer cells. The series can be described thus: Antiproliferative activity against human colon cancer cells (KM-12), ATPlite. It is filed as cell-based. The note with it: KM12, KM-12 cells, 72 hours, read-out: Cell proliferation inhibition (KM-12) IC50. The procedure: The antiproliferative activities of the compounds according to the invention were measured by the ATPlite technique (Perkin Elmer).
Adherent human colon cancer cells (KM-12 colon cancer cells are TrkA-dependent) are inoculated in 96-well plates (3500 cells/well) on day 0, at a concentration compatible with logarithmic growth for the 72 hours required for the evaluation of the compounds. All of the cells are treated on day 1 and then placed in an incubator at 37° C. under an atmosphere of 5% CO2. Cell viability is evaluated on day 4 by assaying released ATP, which is characteristic of viable cells. IC50s are determined by nonlinear regression on the basis of a sigmoidal dose/response relationship model, wherein the Hill coefficient is left variable, carried out on the GraphPad software package according to the algorithm provided.

The subject of series [1] is KM-12 experimental tumor model. Briefly: In vivo antitumor activity against the KM-12 experimental tumor model. Conditions: oral route, (q1d6)x2 weeks schedule. The text has this: This activity is noticeable since colon cancer is overall poor responsive to chemotherapy.
A further series concerns the target T1, TrkA (Homo sapiens, UniProt P04629).
T1 construct: purchased Millipore or Kinome Scan (DiscoverX)
Briefly: Test for measuring inhibition of TrkA kinase (Millipore or Kinome Scan, manufacturer's protocols). Conditions: 10 nM compound. It is filed as biochemical. The text has this:
(§1) These kinases are produced by Millipore or Kinome Scan (DiscoverX) and are screened according to the manufacturer's protocols.

The target of another series is T2, TrkB (Homo sapiens, UniProt Q16620).
T2 construct: purchased Millipore or Kinome Scan (DiscoverX)
T2 sequence (Q16620 32-822): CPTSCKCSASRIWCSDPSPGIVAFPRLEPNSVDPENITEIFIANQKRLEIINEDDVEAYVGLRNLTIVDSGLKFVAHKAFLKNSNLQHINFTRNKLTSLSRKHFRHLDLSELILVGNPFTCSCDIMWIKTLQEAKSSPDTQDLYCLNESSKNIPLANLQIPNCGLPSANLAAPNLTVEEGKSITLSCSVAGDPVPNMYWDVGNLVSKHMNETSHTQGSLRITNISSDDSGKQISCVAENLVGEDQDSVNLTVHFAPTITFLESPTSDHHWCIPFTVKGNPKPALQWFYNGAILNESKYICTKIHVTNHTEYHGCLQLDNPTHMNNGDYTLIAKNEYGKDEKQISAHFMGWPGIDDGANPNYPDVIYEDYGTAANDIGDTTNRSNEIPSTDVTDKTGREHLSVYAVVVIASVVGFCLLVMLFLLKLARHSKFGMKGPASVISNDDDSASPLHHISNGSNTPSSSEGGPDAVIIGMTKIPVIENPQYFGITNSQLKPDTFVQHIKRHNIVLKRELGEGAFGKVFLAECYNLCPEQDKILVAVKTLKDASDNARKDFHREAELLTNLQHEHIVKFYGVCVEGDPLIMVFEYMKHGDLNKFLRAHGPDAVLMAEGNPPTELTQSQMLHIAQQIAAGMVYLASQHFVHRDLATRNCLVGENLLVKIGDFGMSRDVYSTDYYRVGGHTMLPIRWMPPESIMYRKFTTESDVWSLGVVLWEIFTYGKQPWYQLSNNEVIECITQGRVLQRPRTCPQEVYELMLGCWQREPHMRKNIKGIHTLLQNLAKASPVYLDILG
Briefly: Test for measuring inhibition of TrkB kinase (Millipore or Kinome Scan, manufacturer's protocols). It is filed as biochemical. Conditions: 10 nM compound.
Text: as §1

Another series deals with T3, TrkB (or NTRK2) (Homo sapiens, UniProt Q16620).
T3 construct: using the soluble intracellular segment of theses receptors, containing the kinase activity; purchased Invitrogen
T3 sequence (Q16620 455-822 limits assumed): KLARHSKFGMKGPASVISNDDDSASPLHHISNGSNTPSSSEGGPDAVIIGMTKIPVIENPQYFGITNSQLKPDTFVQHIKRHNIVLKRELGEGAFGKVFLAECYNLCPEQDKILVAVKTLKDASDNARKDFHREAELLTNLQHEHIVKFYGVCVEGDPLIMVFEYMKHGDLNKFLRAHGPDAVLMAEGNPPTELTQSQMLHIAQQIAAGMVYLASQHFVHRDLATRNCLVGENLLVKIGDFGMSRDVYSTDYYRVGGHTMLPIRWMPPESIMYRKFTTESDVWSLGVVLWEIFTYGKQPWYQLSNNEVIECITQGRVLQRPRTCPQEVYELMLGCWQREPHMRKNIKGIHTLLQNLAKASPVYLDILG
Briefly: In vitro kinase glo plus-based kinase assay, TrkB. It is filed as biochemical. The note with it: N=36, 40 μM ATP. The procedure:
An in vitro kinase glo plus-based kinase assay (Promega) was developed in a 96 wells assay plate format to assess the inhibiting properties of compounds on tropomyosin related kinases (Trk) receptors, using the soluble intracellular segment of theses receptors, containing the kinase activity (TrkA (or NTRK1; 400 ng/well; […] Invitrogen)). […] Plates were removed from incubator, and 50 μl of kinase-glo plus was added to each well, followed by a 10 minute incubation at room temperature. The luciferase-induced luminescence, which is proportional to the ATP remaining in the well, was measured on a luminometer. Controls on each plates included wells with the kinase alone (maximal ATP consumption, or 0% inhibition), wells without the kinase (maximal ATP signal or 100% inhibition), and wells with 20 μM staurosporine (positive control of inhibition). […] N=42; […]
A general note: Kinase-Glo measures the ATP left after a reaction by luminescence.

T1 sequence (P04629 33-796): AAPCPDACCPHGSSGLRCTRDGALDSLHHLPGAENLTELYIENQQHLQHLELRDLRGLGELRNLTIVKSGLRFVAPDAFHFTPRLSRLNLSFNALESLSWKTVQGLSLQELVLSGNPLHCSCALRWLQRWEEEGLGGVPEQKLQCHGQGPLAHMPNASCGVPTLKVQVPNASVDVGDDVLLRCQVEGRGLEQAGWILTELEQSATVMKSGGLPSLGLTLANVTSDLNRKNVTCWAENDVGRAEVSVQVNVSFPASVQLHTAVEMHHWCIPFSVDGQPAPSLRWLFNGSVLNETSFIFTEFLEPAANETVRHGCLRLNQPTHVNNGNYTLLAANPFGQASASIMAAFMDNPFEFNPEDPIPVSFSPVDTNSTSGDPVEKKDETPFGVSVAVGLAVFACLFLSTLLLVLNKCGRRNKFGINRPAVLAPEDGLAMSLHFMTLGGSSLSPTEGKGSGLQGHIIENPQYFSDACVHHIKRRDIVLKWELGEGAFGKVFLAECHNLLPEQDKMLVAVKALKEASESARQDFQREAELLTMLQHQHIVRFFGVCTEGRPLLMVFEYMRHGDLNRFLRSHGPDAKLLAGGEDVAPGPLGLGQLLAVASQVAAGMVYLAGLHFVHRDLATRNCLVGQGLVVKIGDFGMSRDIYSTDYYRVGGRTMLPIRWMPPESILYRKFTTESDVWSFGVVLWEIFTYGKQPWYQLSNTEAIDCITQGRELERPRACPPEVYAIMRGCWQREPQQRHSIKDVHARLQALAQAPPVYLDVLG

Regarding `CN1CCN(c2ccc(C(=O)Nc3n[nH]c4nc(N)c(Sc5cc(F)cc(F)c5)cc34)c(NC3CCOCC3)c2)CC1` [Example 14-11, N-(6-amino-5-(3,5-difluorophenylthio)-1H-pyrazolo[3,4-b]pyridin-3-yl)-4-(4-methylpiperazin-1-yl)-2-(tetrahydro-2H-pyran-4-ylamino)benzamide], in the series on KM-12 colon cancer cells, the IC50 is 2.2 nM.
Turning to `CN1CCN(c2ccc(C(=O)Nc3n[nH]c4ncc(Sc5cc(F)cc(F)c5)cc34)c(NC3CCOCC3)c2)CC1` [Example 30, N-(5-(3,5-difluorophenylthio)-1-H-pyrazolo[3,4-b]pyridine-3-yl)-4-(4-methylpiperazine-1-yl)-2-(tetrahydro-2H-pyran-4-ylamino)benzamide], the adverse effects result in series [1] (120 and 240 mg/kg) is listed as “without any adverse effects”. Also, in series [1] (recorded at 120 and 240 mg/kg, lasts one week after the end of treatment), the tumor growth inhibition entry is “up to 96%”. In the series on KM-12 colon cancer cells, the IC50 stood at 36 nM.
Consider `CN1CCN(c2ccc(C(=O)Nc3n[nH]c4ncc(Cc5cc(F)cc(F)c5)cc34)c(NC3CCOCC3)c2)CC1` [Example 30-9, N-(5-(3,5-difluorobenzyl)-1H-pyrazolo[3,4-b]pyridin-3-yl)-4-(4-methylpiperazin-1-yl)-2-(tetrahydro-2H-pyran-4-ylamino)benzamidc], for which the “Enzymatic inhibition at 10 nM (%) TrkA” value at TrkA worked out at 55%. The “Enzymatic inhibition at 10 nM (%) TrkB” value at TrkB worked out at 98%.
Consider `COC(=O)[C@@]1(O)C[C@H]2O[C@]1(C)n1c3ccccc3c3c4c(c5c6ccccc6n2c5c31)C(=O)NC4` [Example K252a, K252a], for which the IC50 at TrkB (or NTRK2) was 74 nM. Moreover, the “pIC50 on TrkB” value on TrkB (or NTRK2) (mean±SD) was found to be 7.16±0.18.
